Source: ChEMBL document CHEMBL5126592, “Design, synthesis and activity against drug-resistant bacteria evaluation of C-20, C-23 modified 5-O-mycaminosyltylonolide derivatives” (Eur J Med Chem, 2022)
≈ marks a conversion by molar mass, not a printed value. Calls of active or inactive are those of the source. The rule behind the calls is not given here.

Experiments:
[1] = Genotoxicity in Salmonella typhimurium TA100 assessed as number of revertants at 1.6x10^-6 mg/plate incubated for 72 hrs in presence of liver S9 fraction by Ames test (reference value: 204.33 +/- 8.14); assay type: toxicity, subcellular; conditions: salmonella enterica subsp. enterica serovar typhimurium, s9, 72 h
[2] = system: Staphylococcus aureus; test: Antibacterial activity against Staphylococcus aureus ATCC 29213 at pH 8.6 incubated for 16 to 20 hrs by broth microdilution method; assay type: functional; conditions: time 16-20 hrs
[3] = Genotoxicity in Salmonella typhimurium TA1537 assessed as number of revertants at 2x10^-4 mg/plate incubated for 72 hrs in absence of liver S9 fraction by Ames test (reference value: 22.67 +/- 2.52); assay type: toxicity; conditions: salmonella enterica subsp. enterica serovar typhimurium, s9, 72 h
[4] = system: Escherichia coli; test: Antibacterial activity against Escherichia coli ATCC 25922 at pH 6.8 incubated for 16 to 20 hrs by broth microdilution method; assay type: functional; conditions: time 16-20 hrs
[5] = system: Escherichia coli; test: Antibacterial activity against Escherichia coli ATCC 25922 at pH 8.2 incubated for 16 to 20 hrs by broth microdilution method; assay type: functional; conditions: time 16-20 hrs
[6] = system: Escherichia coli; test: Antibacterial activity against Escherichia coli ATCC 25922 incubated for 16 to 20 hrs using 10^3 CFU/ml bacterial inoculum by broth microdilution method; assay type: functional; conditions: time 16-20 hrs
[7] = system: Escherichia coli; test: Antibacterial activity against Escherichia coli incubated for 16 to 20 hrs by broth microdilution method; assay type: functional; conditions: time 16-20 hrs
[8] = system: Staphylococcus aureus; test: Antibacterial activity against Staphylococcus aureus ATCC 25923 infected in kunming mouse assessed as reduction in bacterial load at 20 to 40 mg/kg, iv measured after 1 hr; assay type: functional, organism-based; conditions: dose 20-40 mg/kg
[9] = Genotoxicity in Salmonella typhimurium TA102 assessed as number of revertants at 1x10^-3 mg/plate incubated for 72 hrs in absence of liver S9 fraction by Ames test (reference value: 386.67 +/- 23.44); assay type: toxicity; conditions: salmonella enterica subsp. enterica serovar typhimurium, s9, 72 h
[10] = system: Escherichia coli; test: Antibacterial activity against Escherichia coli ATCC 25922 incubated for 16 to 20 hrs using 10^7 CFU/ml bacterial inoculum by broth microdilution method; assay type: functional; conditions: time 16-20 hrs
[11] = Genotoxicity in Salmonella typhimurium TA1535 assessed as number of revertants at 1x10^-3 mg/plate incubated for 72 hrs in absence of liver S9 fraction by Ames test (reference value: 14.33 +/- 0.58); assay type: toxicity; conditions: salmonella enterica subsp. enterica serovar typhimurium, s9, 72 h
[12] = system: Staphylococcus aureus; test: Antibacterial activity against Staphylococcus aureus ATCC 29213 at pH 8.6 incubated for 16 to 20 hrs in presence of 50% foetal bovine serum by broth microdilution method; assay type: functional; conditions: time 16-20 hrs
[13] = Genotoxicity in Salmonella typhimurium TA98 assessed as number of revertants at 1x10^-3 mg/plate incubated for 72 hrs in presence of liver S9 fraction by Ames test (reference value: 43.67+/- 7.1); assay type: toxicity, subcellular; conditions: salmonella enterica subsp. enterica serovar typhimurium, s9, 72 h
[14] = Genotoxicity in Salmonella typhimurium TA1537 assessed as number of revertants at 2x10^-4 mg/plate incubated for 72 hrs in presence of liver S9 fraction by Ames test (reference value: 20 +/- 5); assay type: toxicity, subcellular; conditions: salmonella enterica subsp. enterica serovar typhimurium, s9, 72 h
[15] = Genotoxicity in Salmonella typhimurium TA98 assessed as number of revertants at 2x10^-4 mg/plate incubated for 72 hrs in absence of liver S9 fraction by Ames test (reference value: 57.33 +/- 3.06); assay type: toxicity; conditions: salmonella enterica subsp. enterica serovar typhimurium, s9, 72 h
[16] = system: Staphylococcus aureus; test: Antibacterial activity against Staphylococcus aureus ATCC 29213 incubated for 16 to 20 hrs using 10^7 CFU/ml bacterial inoculum by broth microdilution method; assay type: functional; conditions: time 16-20 hrs
[17] = Genotoxicity in Salmonella typhimurium TA1535 assessed as number of revertants at 1.6x10^-6 mg/plate incubated for 72 hrs in absence of liver S9 fraction by Ames test (reference value: 14.33 +/- 0.58); assay type: toxicity; conditions: salmonella enterica subsp. enterica serovar typhimurium, s9, 72 h
[18] = system: Staphylococcus aureus; test: Antibacterial activity against Staphylococcus aureus ATCC 25923 incubated for 16 to 20 hrs by broth microdilution method; assay type: functional; conditions: time 16-20 hrs
[19] = Genotoxicity in Salmonella typhimurium TA100 assessed as number of revertants at 8x10^-6 mg/plate incubated for 72 hrs in presence of liver S9 fraction by Ames test (reference value: 204.33 +/- 8.14); assay type: toxicity, subcellular; conditions: salmonella enterica subsp. enterica serovar typhimurium, s9, 72 h
[20] = system: Escherichia coli; test: Antibacterial activity against Escherichia coli ATCC 25922 at pH 8.6 incubated for 16 to 20 hrs by broth microdilution method; assay type: functional; conditions: time 16-20 hrs
[21] = Genotoxicity in Salmonella typhimurium TA100 assessed as number of revertants at 1x10^-3 mg/plate incubated for 72 hrs in presence of liver S9 fraction by Ames test (reference value: 204.33 +/- 8.14); assay type: toxicity, subcellular; conditions: salmonella enterica subsp. enterica serovar typhimurium, s9, 72 h
[22] = Genotoxicity in Salmonella typhimurium TA102 assessed as number of revertants at 1.6x10^-6 mg/plate incubated for 72 hrs in presence of liver S9 fraction by Ames test (reference value: 465.33 +/- 18.04); assay type: toxicity, subcellular; conditions: salmonella enterica subsp. enterica serovar typhimurium, s9, 72 h
[23] = Genotoxicity in Salmonella typhimurium TA100 assessed as number of revertants at 8x10^-6 mg/plate incubated for 72 hrs in absence of liver S9 fraction by Ames test (reference value: 221.67 +/- 15.57); assay type: toxicity; conditions: salmonella enterica subsp. enterica serovar typhimurium, s9, 72 h
[24] = Genotoxicity in Salmonella typhimurium TA98 assessed as number of revertants at 4x10^-5 mg/plate incubated for 72 hrs in absence of liver S9 fraction by Ames test (reference value: 57.33 +/- 3.06); assay type: toxicity; conditions: salmonella enterica subsp. enterica serovar typhimurium, s9, 72 h
[25] = Genotoxicity in Salmonella typhimurium TA98 assessed as number of revertants at 8x10^-6 mg/plate incubated for 72 hrs in absence of liver S9 fraction by Ames test (reference value: 57.33 +/- 3.06); assay type: toxicity; conditions: salmonella enterica subsp. enterica serovar typhimurium, s9, 72 h
[26] = system: Escherichia coli; test: Antibacterial activity against Escherichia coli ATCC 25922 at pH 7.8 incubated for 16 to 20 hrs by broth microdilution method; assay type: functional; conditions: time 16-20 hrs
[27] = Genotoxicity in Salmonella typhimurium TA1537 assessed as number of revertants at 4x10^-5 mg/plate incubated for 72 hrs in presence of liver S9 fraction by Ames test (reference value: 20 +/- 5); assay type: toxicity, subcellular; conditions: salmonella enterica subsp. enterica serovar typhimurium, s9, 72 h
[28] = Genotoxicity in Salmonella typhimurium TA98 assessed as number of revertants at 8x10^-6 mg/plate incubated for 72 hrs in presence of liver S9 fraction by Ames test (reference value: 43.67+/- 7.1); assay type: toxicity, subcellular; conditions: salmonella enterica subsp. enterica serovar typhimurium, s9, 72 h
[29] = Genotoxicity in Salmonella typhimurium TA98 assessed as number of revertants at 2x10^-4 mg/plate incubated for 72 hrs in presence of liver S9 fraction by Ames test (reference value: 43.67+/- 7.1); assay type: toxicity, subcellular; conditions: salmonella enterica subsp. enterica serovar typhimurium, s9, 72 h
[30] = Genotoxicity in Salmonella typhimurium TA98 assessed as number of revertants at 4x10^-5 mg/plate incubated for 72 hrs in presence of liver S9 fraction by Ames test (reference value: 43.67+/- 7.1); assay type: toxicity, subcellular; conditions: salmonella enterica subsp. enterica serovar typhimurium, s9, 72 h
[31] = system: Enterococcus faecium; test: Antibacterial activity against Enterococcus faecium incubated for 16 to 20 hrs by broth microdilution method; assay type: functional; conditions: time 16-20 hrs
[32] = system: Escherichia coli; test: Antibacterial activity against Escherichia coli ATCC 25922 at pH 7.4 incubated for 16 to 20 hrs by broth microdilution method; assay type: functional; conditions: time 16-20 hrs
[33] = Genotoxicity in Salmonella typhimurium TA1537 assessed as number of revertants at 1x10^-3 mg/plate incubated for 72 hrs in absence of liver S9 fraction by Ames test (reference value: 22.67 +/- 2.52); assay type: toxicity; conditions: salmonella enterica subsp. enterica serovar typhimurium, s9, 72 h
[34] = system: Staphylococcus aureus; test: Antibacterial activity against Staphylococcus aureus ATCC 29213 at pH 7 incubated for 16 to 20 hrs by broth microdilution method; assay type: functional; conditions: time 16-20 hrs

CC[C@H]1OC(=O)C[C@@H](O)[C@H](C)[C@@H](O[C@@H]2O[C@H](C)[C@@H](O)[C@H](N(C)C)[C@H]2O)[C@@H](CCN(C)Cc2cn(-c3cnc4ccccc4c3)nn2)C[C@@H](C)C(=O)/C=C/C(C)=C/[C@@H]1CN1CCCCCC1
Activity [1]: 162.67
MIC [2]: ≤ 0.0625 µg/mL
Activity [3]: 15.67
MIC [4]: 8 µg/mL (≈ 8.87 µM)
MIC [5]: 0.25 µg/mL (≈ 0.277 µM)
MIC [6]: 0.25 µg/mL (≈ 0.277 µM)
MIC [7]: 1 µg/mL (≈ 1.11 µM)
Activity [8]: Active
Activity [9]: 418
MIC [10]: 1 µg/mL (≈ 1.11 µM)
Activity [11]: 5
MIC [12]: 2 µg/mL
Activity [13]: 40.33
Activity [14]: 15
Activity [15]: 61.33
MIC [16]: 0.25 µg/mL (≈ 0.277 µM)
Activity [17]: 6.67
MIC [18]: 0.125 µg/mL (≈ 0.139 µM)
Activity [19]: 167
MIC [20]: 0.25 µg/mL (≈ 0.277 µM)
Activity [21]: 174.67
Activity [22]: 449.33
Activity [23]: 226
Activity [24]: 62.33
Activity [25]: 63.33
MIC [26]: 0.5 µg/mL (≈ 0.554 µM)
Activity [27]: 14.67
Activity [28]: 45.67
Activity [29]: 44.33
Activity [30]: 44.67
MIC [31]: 1 µg/mL (≈ 1.11 µM)
MIC [32]: 1 µg/mL (≈ 1.11 µM)
Activity [33]: 15.33
MIC [34]: 2 µg/mL (≈ 2.22 µM)
